Experimental data: the CheMixHub drug solubility set

Experiment: xn = mol fraction of the nth substance listed, in the solute-free solvent

O=C1C=CC(=O)N1c1ccccc1Br + CCO + O
solubility (g/100 g solution)
Conditions | 278.15 K | 283.15 K | 288.15 K | 293.15 K | 298.15 K | 303.15 K | 308.15 K | 313.15 K | 318.15 K | 323.15 K
x2 = 0.04165 | 0.529 | 0.674 | 0.862 | 1.08 | 1.34 | 1.67 | 2.03 | 2.48 | 2.98 | 3.59
x2 = 0.08908 | 0.965 | 1.24 | 1.54 | 1.93 | 2.39 | 2.94 | 3.58 | 4.39 | 5.22 | 6.22
x2 = 0.1436 | 1.66 | 2.09 | 2.65 | 3.22 | 3.94 | 4.8 | 5.87 | 6.98 | 8.31 | 9.86
x2 = 0.2068 | 2.5 | 3.13 | 3.83 | 4.75 | 5.68 | 6.85 | 8.18 | 9.81 | 11.5 | 13.3
x2 = 0.2812 | 3.54 | 4.34 | 5.21 | 6.34 | 7.51 | 9.04 | 10.5 | 12.3 | 14.3 | 16.5
x2 = 0.3698 | 4.32 | 5.25 | 6.3 | 7.63 | 8.97 | 10.7 | 12.4 | 14.4 | 16.6 | 18.8
x2 = 0.4772 | 4.85 | 5.92 | 7.08 | 8.5 | 10 | 11.8 | 13.7 | 15.7 | 18.1 | 20.8
x2 = 0.6101 | 5.33 | 6.52 | 7.78 | 9.33 | 11 | 12.9 | 15.1 | 17.4 | 19.9 | 22.6
x2 = 0.7788 | 5.65 | 6.85 | 8.21 | 9.83 | 11.7 | 13.6 | 15.8 | 18.6 | 20.8 | 23.7
